Laboratory results reported in ChEMBL document CHEMBL5579852, “Promising anti-proliferative indolic benzenesulfonamides alter mechanisms with sulfonamide nitrogen substituents” (Eur J Med Chem, 2024).
The source made the active and inactive calls. No cut-off for these calls is given here.

Columns and labels:
[1] = Antiproliferative activity against human HEK293 cells assessed as reduction in cell viability incubated for 72 hrs by CelltiterGlo luminescent assay; type: toxicity, cell-based
MES-SA [2] = assay: Cell cycle distribution in human MES-SA cells assessed as accumulation of cells in S phase cells at 100 nM incubated for 24 hrs by Hoechst 33258 staining based flow cytometry (reference value: 27 %); type: functional
MES-SA [3] = assay: Cell cycle distribution in human MES-SA cells assessed as accumulation of cells in G2/M phase cells at 100 nM incubated for 24 hrs by Hoechst 33258 staining based flow cytometry (reference value: 13.3 %); type: functional
[4] = Antiproliferative activity against human WM1366 cells assessed as reduction in cell viability incubated for 72 hrs by CelltiterGlo luminescent assay; details: WM1366, 72 h
HeLa [5] = assay: Antiproliferative activity against human HeLa cells assessed as inhibition of cell growth incubated for 72 hrs in presence of verapamil by MTT assay; type: functional, cell-based
MES-SA [6] = assay: Induction of apoptosis in human MES-SA cells assessed as necrotic cells at 100 nM incubated for 24 hrs by live/dead orange and TUNEL staining based flow cytometry analysis relative to control; type: functional
HT-1080 = assay: Antiproliferative activity against human HT-1080 cells assessed as reduction in cell viability incubated for 72 hrs by CelltiterGlo luminescent assay; details: HT-1080, 72 h
MES-SA [7] = assay: Induction of apoptosis in human MES-SA cells assessed as apoptotic cells at 100 nM incubated for 24 hrs by live/dead orange and TUNEL staining based flow cytometry analysis relative to control; type: functional
MES-SA [8] = assay: Induction of apoptosis in human MES-SA cells assessed as live cells at 100 nM incubated for 24 hrs by live/dead orange and TUNEL staining based flow cytometry analysis relative to control; type: functional
MDA-MB-468 = assay: cells; details: Homo sapiens, MDA-MB-468, 72 h
Description: Antiproliferative activity against human MDA-MB-468 cells assessed as reduction in cell viability incubated for 72 hrs by CelltiterGlo luminescent assay

[9] = Antiproliferative activity against human Melmet 5 cells assessed as reduction in cell viability incubated for 72 hrs by CelltiterGlo luminescent assay; details: Melmet 5, 72 h
cells = details: Homo sapiens, MDA-MB-468, 72 h
[10] = Antiproliferative activity against human Hermes 3C cells assessed as reduction in cell viability incubated for 72 hrs by CelltiterGlo luminescent assay; type: toxicity, cell-based
MES-SA [11] = assay: Cell cycle distribution in human MES-SA cells assessed as accumulation of cells in G2 phase cells at 100 nM incubated for 24 hrs by Hoechst 33258 staining based flow cytometry (reference value: 12 %); type: functional
MCF7 = assay: Antiproliferative activity against human MCF7 cells assessed as reduction in cell viability incubated for 72 hrs by CelltiterGlo luminescent assay; type: functional, cell-based; details: MCF7, 72 h
HeLa [12] = assay: Antiproliferative activity against human HeLa cells assessed as reduction in cell viability incubated for 72 hrs by MTT assay; type: functional, cell-based
MES-SA [13] = assay: Cell cycle distribution in human MES-SA cells assessed as accumulation of cells in G1 phase cells at 100 nM incubated for 24 hrs by Hoechst 33258 staining based flow cytometry (reference value: 60%); type: functional
BT-474 = assay: Antiproliferative activity against human BT-474 cells assessed as reduction in cell viability incubated for 72 hrs by CelltiterGlo luminescent assay; details: BT-474, 72 h
MES-SA [14] = assay: Induction of apoptosis in human MES-SA cells assessed as late apoptotic cells at 100 nM incubated for 24 hrs by live/dead orange and TUNEL staining based flow cytometry analysis relative to control; type: functional
Tubulin (Homo sapiens) = Tubulin (Homo sapiens) (UniProt P68371+Q9H4B7+P0DPH7+P68366+Q13509+Q71U36+P04350+Q3ZCM7+P07437+P68363+Q9BQE3+Q6PEY2+Q13885+Q9BVA1+Q9BUF5); assay: Inhibition of tubulin polymerization in human MES-SA cells assessed as appearance of spherical shaped cells at 10 nM incubated for 24 hrs by DAPI staining based confocal microscopy analysis; type: cell-based
MES-SA [15] = assay: Antiproliferative activity against human MES-SA cells assessed as reduction in cell viability incubated for 72 hrs by CelltiterGlo luminescent assay
MES-SA [16] = assay: Induction of apoptosis in human MES-SA cells assessed as increase in caspase 3/7 activation at 100 nM by live-cell imaging based fluorescence assay; type: functional; details: time 3.0 day, TDE = time-dependent effect
[17] = Antiproliferative activity against human RPE-1 cells assessed as reduction in cell viability incubated for 72 hrs by CelltiterGlo luminescent assay; type: toxicity, cell-based; details: RPE-1 cells (TERT-RPE1)
MES-SA [18] = assay: Cell cycle distribution in human MES-SA cells assessed as accumulation of cells in M phase cells at 100 nM incubated for 24 hrs by Hoechst 33258 staining based flow cytometry (reference value: 1.3 %); type: functional
A-375 = assay: Antiproliferative activity against human A-375 cells assessed as reduction in cell viability incubated for 72 hrs by CelltiterGlo luminescent assay; details: A-375, 72 h
HeLa [19] = assay: Antiproliferative activity against human HeLa cells assessed as inhibition of cell growth incubated for 72 hrs in absence of verapamil by MTT assay; type: functional, cell-based
CAKI-1 [20] = assay: Antiproliferative activity against human CAKI-1 cells assessed as reduction in cell viability incubated for 72 hrs by CelltiterGlo luminescent assay
HeLa [21] = assay: Antiproliferative activity against human HeLa cells assessed as reduction in cell viability incubated for 72 hrs by CelltiterGlo luminescent assay; type: functional, cell-based
MES-SA [22] = assay: Induction of apoptosis in human MES-SA cells assessed as caspase 3/7 activation at 1 uM incubated for 48 to 72 hrs by live-cell imaging based fluorescence assay; type: functional; details: time lower […], time upper 72.0 hrs
MES-SA [23] = assay: Induction of apoptosis in human MES-SA cells assessed as caspase 3/7 activation at 1 uM incubated for 24 hrs by live-cell imaging based fluorescence assay; type: functional
MES-SA [24] = assay: Induction of apoptosis in human MES-SA cells assessed as dead cells at 100 nM incubated for 24 hrs by live/dead orange and TUNEL staining based flow cytometry analysis relative to control; type: functional
CAKI-1 [25] = assay: Antiproliferative activity against human CAKI-1 cells assessed as reduction in cell viability incubated for 72 hrs by CelltiterGlo luminescent assay; details: CAKI-1, 72 h

Work on `COc1cc(S(=O)(=O)N(C)c2ccc3c(c2)c(C#N)cn3C)cc(OC)c1OC` yielded an IC50 at 72 h [1] of 29 nM, an Activity (MES-SA [2]) of 6% and an Activity (MES-SA [3]) of 83.6%. For the same compound, the IC50 [4] was 20.2 nM, the IC50 (HeLa [5]) was 24.6 nM and the Activity (MES-SA [6]) was 2.3%. It also gave an IC50 (HT-1080) of 15.3 nM, an Activity (MES-SA [7]) of 5% and an Activity (MES-SA [8]) of 91.4%. The IC50 (MDA-MB-468) was 28 nM, the IC50 [9] was 10.6 nM and the IC50 (cells) was 69.5 nM. The IC50 at 72 h [10] was 45.6 nM, the Activity (MES-SA [11]) was 10% and the IC50 (MCF7) was 12.3 nM. For the same compound, the IC50 (HeLa [12]) was 8 nM, the Activity (MES-SA [13]) was 4% and the IC50 (BT-474) was 16.3 nM. For the same compound, the Activity (MES-SA [14]) was 1.3%, the inhibition (Tubulin (Homo sapiens)) was “Active” and the IC50 (MES-SA [15]) was 6.3 nM. The Activity (MES-SA [16]) was “Tde”, the IC50 at 72 h [17] was 13.2 nM and the Activity (MES-SA [18]) was 75.3%. The IC50 (A-375) was 11.7 nM, the IC50 (HeLa [19]) was 25.7 nM and the Activity (CAKI-1 [20]) was “inactive”. It also gave an IC50 (HeLa [21]) of 16 nM.

In the case of `CN[C@@H]1C[C@H]2O[C@@](C)([C@@H]1OC)n1c3ccccc3c3c4c(c5c6ccccc6n2c5c31)C(=O)NC4`, the Activity (MES-SA [22]) is reported as “inactive” and the Activity (MES-SA [23]) is reported as “Active”.

For `COc1cc(S(=O)(=O)N(CC#N)c2ccc3c(ccn3C)c2)cc(OC)c1OC`, the IC50 at 72 h [1] was 23.4 nM, the Activity (MES-SA [2]) was 6% and the Activity (MES-SA [3]) was 83.6%. For the same compound, the IC50 [4] was 52.8 nM, the IC50 (HeLa [5]) was 16.3 nM and the Activity (MES-SA [6]) was 4.5%. It also gave an IC50 (HT-1080) of 9.9 nM, an Activity (MES-SA [7]) of 3.1% and an Activity (MES-SA [8]) of 92%. The IC50 (MDA-MB-468) was 13 nM, the IC50 [9] was 8.9 nM and the IC50 (cells) was 14.8 nM. It also gave an IC50 at 72 h [10] of 44.7 nM, an Activity (MES-SA [11]) of 35% and an IC50 (MCF7) of 13.7 nM. For the same compound, the IC50 (HeLa [12]) was 1.7 nM, the Activity (MES-SA [13]) was 4% and the Activity (MES-SA [24]) was 8%. The IC50 (BT-474) was 68.3 nM, the Activity (MES-SA [14]) was 0.5% and the inhibition (Tubulin (Homo sapiens)) was “inactive”. For the same compound, the IC50 (MES-SA [15]) was 8.9 nM, the Activity (MES-SA [16]) was “Tde” and the IC50 at 72 h [17] was 80.4 nM. It also gave an Activity (MES-SA [18]) of 48.6%, an IC50 (A-375) of 22.1 nM and an IC50 (HeLa [19]) of 22.3 nM. The IC50 (CAKI-1 [25]) was 56.2 nM and the IC50 (HeLa [21]) was 11 nM.

Work on `COc1cc(S(=O)(=O)Nc2ccc3c(ccn3C)c2)cc(OC)c1OC` yielded an IC50 at 72 h [1] of 4.9 nM, an Activity (MES-SA [2]) of 6% and an Activity (MES-SA [3]) of 83.6%. For the same compound, the IC50 [4] was 7.1 nM, the IC50 (HeLa [5]) was 17.9 nM and the Activity (MES-SA [6]) was 4.7%. The IC50 (HT-1080) was 5.6 nM, the Activity (MES-SA [7]) was 4.2% and the Activity (MES-SA [8]) was 90.3%. The IC50 (MDA-MB-468) was 4.5 nM, the IC50 [9] was 1.4 nM and the IC50 (cells) was 29.6 nM. It also gave an IC50 at 72 h [10] of 61 nM, an Activity (MES-SA [11]) of 29% and an IC50 (MCF7) of 1.4 nM. It also gave an IC50 (HeLa [12]) of 5.3 nM, an Activity (MES-SA [13]) of 4% and an IC50 (BT-474) of 46.1 nM. The Activity (MES-SA [14]) was 0.8%, the inhibition (Tubulin (Homo sapiens)) was “inactive” and the IC50 (MES-SA [15]) was 5.6 nM. For the same compound, the Activity (MES-SA [16]) was “Tde”, the IC50 at 72 h [17] was 5.7 nM and the Activity (MES-SA [18]) was 56.8%. For the same compound, the IC50 (A-375) was 6.4 nM, the IC50 (HeLa [19]) was 22.9 nM and the IC50 (CAKI-1 [25]) was 4 nM. For the same compound, the IC50 (HeLa [21]) was 3.9 nM.
